Results reported in patent US20230372313A1, “METHODS FOR REDUCING GLYCOSPHINGOLIPID CONCENTRATION IN BRAIN TISSUE AND METHODS OF TREATMENT OF NEURODEGENERATIVE DISEASES INVOLVING THE SAME” (GENZYME CORPORATION, priority 2020, published 2023).

Assay: Safety and tolerability: adverse events in the treatment-emergent period, part 1 of phase 2 trial in PD patients carrying a GBA mutation
Type: in vivo, human
Text: This clinical trial is a 3-year, phase 2, randomised, double-blinded, placebo-controlled, multicenter study of Compound 2 in participants with early-stage PD carrying a GBA mutation. The trial is divided into 2 consecutive parts: part 1 is a dose escalation study (described below) of safety, pharmacokinetics, and pharmacodynamics of 3 doses using 3 sequential cohorts; part 2 is an ongoing 2-arm study of efficacy and safety of Compound 2.
Participants were randomised to 3 doses of once-daily orally administered Compound 2 or placebo, in sequential cohort design, and were followed up to 36 weeks (52 weeks for Japanese participants). Participants in the low-dose group received 4 mg of Compound 2 as a once daily oral dose; participants in the mid-dose group received 8 mg of Compound 2 a once daily oral dose; and participants in the high-dose group received 15 mg of Compound 2 a once daily oral dose.
The primary outcome in part 1 of trial was an assessment of safety and tolerability of orally administered Compound 2 versus placebo through Week 4 (primary analysis period for each sequential cohort). In addition, safety assessments were recorded for every 4 weeks until completion. Safety was assessed by physical examination; neurological examination; clinical laboratory evaluations conducted at a central laboratory, including haematology, biochemistry, urinalysis, and serology tests; vital signs; assessment of AEs and concomitant medication; ophthalmological examination; and electrocardiogram. AEs, serious Aes, and AEs of special interest (AESI) were recorded throughout the study. Serious AEs were defined as fatal, or life threatening, requiring or prolonging inpatient hospitalisation, or disabling/incapacitating, congenital anomalies, or medically important events (e.g. malignancies or chronic neurodegenerative diseases). AESI included new or worsening lens opacities and cataracts (as assessed by ophthalmology evaluations at screening and at Weeks 4, 12, 28, 36 [Weeks 4, 12, 36, 52 for Japanese participants]), pregnancy events, increase of alanine aminotransferase, or symptomatic overdose with study drug.
During the study, 29 participants were randomised to Compound 2 (Japan, n=9; ROW, n=13) or placebo (n=3; n=4). Eight (89%) Japanese and 12 (92%) ROW Compound 2-treated participants experienced ≥1 adverse event (AE) versus 2 (67%) and 4 (100%) participants from the respective placebo groups. […] Two Compound 2-treated ROW participants discontinued due to AEs (confusional state and panic attack).

CC(C)(NC(=O)O[C@@H]1CN2CCC1CC2)c1csc(-c2ccc(F)cc2)n1 [Compound 2, (S)-quinuclidin-3-yl (2-(2-(4-fluorophenyl)thiazol-4-yl)propan-2-yl)carbamate]
Number of participants with AEs: Infections and infestations (Japan, High 15 mg once daily oral, n = 3): 1
Number of participants with AEs: Infections and infestations (Japan, Low 4 mg once daily oral, n = 3): 2
Number of participants with AEs: Infections and infestations (Japan, Mid 8 mg once daily oral, n = 3): 0
Number of participants with AEs: Infections and infestations (ROW, High 15 mg once daily oral, n = 4): 1
Number of participants with AEs: Infections and infestations (ROW, Low 4 mg once daily oral, n = 4): 0
Number of participants with AEs: Infections and infestations (ROW, Mid 8 mg once daily oral, n = 5): 0
serious AEs or deaths (all participants, part 1): no serious AEs or deaths occurred
participants who discontinued due to AEs (confusional state and panic attack) (human, in vivo): Two
